Results: patent publication US20220306659A1, “COMPOUND INHIBITING AND INDUCING DEGRADATION OF EGFR AND ALK” (BEIJING TIDE PHARMACEUTICAL CO., LTD., priority 2019, published 2022)

Key:
[1] = molecular target: Ba/F3(EGFR^L858R/T790M/C797S) cells (Homo sapiens, UniProt P00533, T790M/C797S/L858R, cells depend on it); experiment: Assay of activity on Ba/F3 cells (CTG, 72 h); assay type: cell-based; conditions: read-out: IC50 (nM) Ba/F3 (EGFR^L858R/T790M/C797S)
Experimental: (§1) (2) A compound stock solution was prepared, and then diluted 3× to obtain a compound dilution. 30 nL of the compound dilution was added to a 384-well plate by Echo (Labcyte, Echo550). The cells were incubated in an incubator at 37° C. and 5% CO2 for 72 h.
(§2) The percent inhibition rate (% inhibition) was calculated by the following formula
(§3) LUMcmpd: Luminescence value of assay compound.
(§4) LUMpositive: Average LUM value of positive drug at a concentration of 10 μM.
(§5) LUMvehicle. Average LUM value of negative control group without drug treatment.
(§6) The nonlinear regression curve (dose response-variable slope) between the value of inhibition rate (%) and the logarithm of compound concentration was fitted with graphpad prism 8.0, the effect dose curve of compound was drawn, and the IC50 value was calculated.
(§7) Y=Bottom+(Top−Bottom)/(1+1^((LogIC50−X)*HillSlope))
(§8) X-axis: logarithm of compound concentration; Y axis: inhibition rate ([…]).

EGFR^L858R/T790M/C797S = EGFR^L858R/T790M/C797S (Homo sapiens, UniProt P00533, C797S/L858R/T790M); experiment: EGFR inhibitory activity assay (TK-substrate-biotin/ATP, 665/615 ratio); assay type: biochemical; conditions: kinase inhibition
Experimental: EGFR Inhibitory Activity Assay
(1) A compound stock solution was prepared and diluted 3× to obtain a compound dilution; 10 nL of the compound dilution was transferred to a 384-well plate (784075, Greiner) by Echo 550;
(2) The plate was sealed, and centrifuged at 1,000 g for 1 min;
(4) 5 μl of the 2×EGFR protein working solution was added to the 384-well plate from step (2), centrifuged at 1,000 g for 30 s, and allowed to stand at room temperature (mixed thoroughly) for 10 min;
(6) 5 µL of the TK-substrate-biotin and ATP (the mixture prepared in step (5)) was added to the 384-well plate from step (4) to initiate the reaction;
(7) The mixture was centrifuged at 1,000 g for 30 s; the plate was sealed, and allowed to stand (and reacted) at room temperature for 40 min;
(8) 4×Sa-XL 665 and TK-antibody-Cryptate were prepared with detection buffer;
(9) 5 µL of the Sa-XL 665 and 5 µL of the TK-antibody-Cryptate were added successively to the 384-well plate from step (7);
(10) The mixture was centrifuged at 1,000 g for 30 s, and allowed to stand (reacted) at room temperature for 1 h;
(11) The fluorescence values were read at 615 nm and 665 nm by enzyme labeling instrument (PerkinElmer, 74785).
The ratio (665/615) of each well was calculated.
Formula of inhibition rate (%): […]
Ratiocmpd: Ratio (665/615) value of assay compound.
Ratiopositive: Average ratio (665/615) value of positive control.
Ratiovehicle: Average ratio (665/615) value of negative control.
as §6

[2] = molecular target: Ba/F3(EGFR^Del19/T790M/C797S) cells (Homo sapiens, UniProt P00533, DEL746-750/T790M/C797S, cells depend on it); experiment: Assay of activity on Ba/F3 cells (CTG, 72 h); assay type: cell-based; conditions: read-out: IC50 (nM) Ba/F3 (EGFR^Del19/T790M/C797S)
Experimental: as §1, §2, §3, §4, §5, §6, §7, §8

EGFR^L858R/T790M/C797S, sequence (P00533 25-1210 T790M/C797S/L858R): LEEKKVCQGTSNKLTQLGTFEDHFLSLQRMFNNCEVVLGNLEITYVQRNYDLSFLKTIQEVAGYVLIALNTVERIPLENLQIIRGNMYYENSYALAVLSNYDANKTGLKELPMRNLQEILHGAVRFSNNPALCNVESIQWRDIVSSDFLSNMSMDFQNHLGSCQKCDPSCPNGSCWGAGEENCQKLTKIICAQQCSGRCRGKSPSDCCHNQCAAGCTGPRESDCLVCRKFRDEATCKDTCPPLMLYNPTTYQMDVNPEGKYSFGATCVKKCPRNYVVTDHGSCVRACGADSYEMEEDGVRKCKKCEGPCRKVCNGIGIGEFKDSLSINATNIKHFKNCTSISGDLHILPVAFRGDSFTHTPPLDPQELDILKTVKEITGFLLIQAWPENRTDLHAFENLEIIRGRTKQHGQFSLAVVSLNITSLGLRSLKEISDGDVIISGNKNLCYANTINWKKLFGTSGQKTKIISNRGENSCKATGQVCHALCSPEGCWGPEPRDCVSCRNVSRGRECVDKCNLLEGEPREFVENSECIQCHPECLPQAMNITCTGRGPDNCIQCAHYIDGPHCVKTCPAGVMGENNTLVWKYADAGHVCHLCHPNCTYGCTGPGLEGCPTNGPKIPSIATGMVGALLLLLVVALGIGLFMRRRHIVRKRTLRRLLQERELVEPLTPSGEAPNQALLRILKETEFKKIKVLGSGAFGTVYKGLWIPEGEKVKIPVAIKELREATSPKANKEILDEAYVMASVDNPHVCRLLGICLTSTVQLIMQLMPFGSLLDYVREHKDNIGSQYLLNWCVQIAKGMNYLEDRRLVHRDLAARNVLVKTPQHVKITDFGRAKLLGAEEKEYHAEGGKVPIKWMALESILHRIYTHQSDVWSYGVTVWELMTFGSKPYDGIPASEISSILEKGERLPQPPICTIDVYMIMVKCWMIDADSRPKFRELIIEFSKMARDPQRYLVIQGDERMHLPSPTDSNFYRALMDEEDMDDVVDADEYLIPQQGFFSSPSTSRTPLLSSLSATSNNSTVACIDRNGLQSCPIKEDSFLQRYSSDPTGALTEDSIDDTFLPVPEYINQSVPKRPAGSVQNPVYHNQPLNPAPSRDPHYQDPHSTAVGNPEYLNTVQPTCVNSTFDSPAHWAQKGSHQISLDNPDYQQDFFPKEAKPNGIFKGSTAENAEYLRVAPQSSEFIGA
Ba/F3(EGFR^L858R/T790M/C797S) cells, sequence (P00533 whole entry T790M/C797S/L858R): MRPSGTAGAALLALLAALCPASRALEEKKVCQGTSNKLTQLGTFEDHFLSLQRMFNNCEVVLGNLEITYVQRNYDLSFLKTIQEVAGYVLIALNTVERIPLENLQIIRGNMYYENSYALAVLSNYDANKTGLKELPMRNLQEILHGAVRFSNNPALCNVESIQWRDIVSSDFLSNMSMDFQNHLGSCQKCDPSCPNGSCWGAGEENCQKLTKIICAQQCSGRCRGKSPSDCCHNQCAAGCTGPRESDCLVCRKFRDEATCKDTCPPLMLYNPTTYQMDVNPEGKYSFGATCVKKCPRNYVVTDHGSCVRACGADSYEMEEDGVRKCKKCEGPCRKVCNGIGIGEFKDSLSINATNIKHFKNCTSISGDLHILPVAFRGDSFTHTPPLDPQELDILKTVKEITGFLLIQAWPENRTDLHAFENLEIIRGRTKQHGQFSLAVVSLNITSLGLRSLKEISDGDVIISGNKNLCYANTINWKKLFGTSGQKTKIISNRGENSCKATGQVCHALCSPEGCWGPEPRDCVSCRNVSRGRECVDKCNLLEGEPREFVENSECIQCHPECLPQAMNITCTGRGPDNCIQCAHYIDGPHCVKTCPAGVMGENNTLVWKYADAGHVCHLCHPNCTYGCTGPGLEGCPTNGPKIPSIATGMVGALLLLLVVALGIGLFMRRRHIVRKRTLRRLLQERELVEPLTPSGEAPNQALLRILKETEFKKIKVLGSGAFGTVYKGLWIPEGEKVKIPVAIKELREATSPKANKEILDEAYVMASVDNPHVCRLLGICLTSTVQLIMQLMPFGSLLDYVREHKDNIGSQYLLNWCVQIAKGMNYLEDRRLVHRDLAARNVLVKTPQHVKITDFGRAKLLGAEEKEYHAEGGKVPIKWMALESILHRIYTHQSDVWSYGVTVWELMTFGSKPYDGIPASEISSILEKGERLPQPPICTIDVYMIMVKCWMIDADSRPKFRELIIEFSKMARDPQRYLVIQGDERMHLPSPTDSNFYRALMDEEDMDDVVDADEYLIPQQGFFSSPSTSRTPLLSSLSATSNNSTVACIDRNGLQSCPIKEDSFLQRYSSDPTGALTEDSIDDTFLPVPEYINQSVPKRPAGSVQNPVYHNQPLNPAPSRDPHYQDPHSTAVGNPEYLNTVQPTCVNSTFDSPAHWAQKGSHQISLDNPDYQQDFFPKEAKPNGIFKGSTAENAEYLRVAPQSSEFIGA
Ba/F3(EGFR^Del19/T790M/C797S) cells, sequence (P00533 with tags, fused parts or gaps DEL746-750/T790M/C797S): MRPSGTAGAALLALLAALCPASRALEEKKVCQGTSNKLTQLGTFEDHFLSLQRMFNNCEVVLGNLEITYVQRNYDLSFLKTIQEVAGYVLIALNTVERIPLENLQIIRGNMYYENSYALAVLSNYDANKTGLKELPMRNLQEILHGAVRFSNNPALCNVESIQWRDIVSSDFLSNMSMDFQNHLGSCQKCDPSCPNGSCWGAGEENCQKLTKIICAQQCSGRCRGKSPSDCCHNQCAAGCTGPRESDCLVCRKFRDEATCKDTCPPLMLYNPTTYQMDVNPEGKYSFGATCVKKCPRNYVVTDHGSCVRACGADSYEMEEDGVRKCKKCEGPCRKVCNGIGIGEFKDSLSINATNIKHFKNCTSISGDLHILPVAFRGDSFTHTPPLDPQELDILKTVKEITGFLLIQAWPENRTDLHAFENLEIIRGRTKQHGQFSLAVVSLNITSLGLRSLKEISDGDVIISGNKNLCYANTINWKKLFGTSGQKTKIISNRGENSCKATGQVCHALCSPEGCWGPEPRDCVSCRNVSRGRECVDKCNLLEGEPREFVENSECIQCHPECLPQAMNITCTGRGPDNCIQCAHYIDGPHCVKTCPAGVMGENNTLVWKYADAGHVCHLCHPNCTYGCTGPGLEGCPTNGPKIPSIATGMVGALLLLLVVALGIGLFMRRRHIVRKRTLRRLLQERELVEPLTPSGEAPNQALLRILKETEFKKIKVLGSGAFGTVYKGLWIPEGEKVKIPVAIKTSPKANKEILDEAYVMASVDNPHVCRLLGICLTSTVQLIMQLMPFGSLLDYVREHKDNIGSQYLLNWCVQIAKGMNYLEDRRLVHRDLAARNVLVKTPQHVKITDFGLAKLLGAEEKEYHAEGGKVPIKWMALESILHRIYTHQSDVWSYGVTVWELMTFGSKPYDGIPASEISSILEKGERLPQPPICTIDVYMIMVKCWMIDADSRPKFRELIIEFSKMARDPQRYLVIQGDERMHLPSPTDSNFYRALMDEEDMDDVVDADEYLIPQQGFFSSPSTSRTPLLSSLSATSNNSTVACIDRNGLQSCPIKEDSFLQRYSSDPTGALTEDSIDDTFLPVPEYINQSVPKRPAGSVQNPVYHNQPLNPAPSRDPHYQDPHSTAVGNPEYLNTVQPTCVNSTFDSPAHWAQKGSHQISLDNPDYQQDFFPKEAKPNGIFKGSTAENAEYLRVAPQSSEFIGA

Row | SMILES | GI50 [1] | IC50 (EGFR^L858R/T790M/C797S) | GI50 [2]
1 | COc1cc(N2CCC(N3CCN(C(=O)COc4cccc5c4C(=O)N(C4CCC(=O)NC4=O)C5=O)CC3)CC2)ccc1Nc1ncc(Cl)c(Nc2ccccc2P(C)(C)=O)n1 (stereo not shown) [Compound C101, 4-(2-(4-(1-(4-((5-chloro-4-((2-(dimethylphosphoryl)phenyl)amino)pyrimidin-2-yl)amino)-3-methoxyphenyl)piperidin-4-yl)piperazin-1-yl)-2-oxoethoxy)-2-(2,6-dioxopiperidin-3-yl)isoindoline-1,3-dione] | > 300 nM | 1 to 100 nM | –
2 | COc1cc(N2CCC(N3CCN(CC(=O)NC4CCN(CC(=O)Nc5cccc6c5CN(C5CCC(=O)NC5=O)C6=O)CC4)CC3)CC2)ccc1Nc1ncc(Cl)c(Nc2ccccc2P(C)(C)=O)n1 (stereo not shown) [Compound C88, 2-(4-(1-(4-((5-chloro-4-((2-(dimethylphosphoryl)phenyl)amino)pyrimidin-2-yl)amino)-3-methoxyphenyl)piperidin-4-yl)piperazin-1-yl)-N-(1-(2-((2-(2,6-dioxopiperidin-3-yl)-1-oxoisoindolin-4-yl)amino)-2-oxoethyl)piperidin-4-yl)acetamide] | > 300 nM | 1 to 100 nM | –
3 | COc1cc(N2CCC(N3CCN(C(=O)CN4CCN(C(=O)COc5cccc6c5C(=O)N(C5CCC(=O)NC5=O)C6=O)CC4)CC3)CC2)ccc1Nc1ncc(Cl)c(Nc2ccccc2P(C)(C)=O)n1 (stereo not shown) [Compound C99, 4-(2-(4-(2-(4-(1-(4-((5-chloro-4-((2-(dimethylphosphoryl)phenyl)amino)pyrimidin-2-yl)amino)-3-methoxyphenyl)piperidin-4-yl)piperazin-1-yl)-2-oxoethyl)piperazin-1-yl)-2-oxoethoxy)-2-(2,6-dioxopiperidin-3-yl)isoindoline-1,3-dione] | > 300 nM | 1 to 100 nM | –
4 | COc1cc(N2CCC(N3CCN(CC(=O)NCCNc4cccc5c4C(=O)N(C4CCC(=O)NC4=O)C5=O)CC3)CC2)ccc1Nc1ncc(Cl)c(Nc2ccccc2P(C)(C)=O)n1 (stereo not shown) [Compound A6, 2-(4-(1-(4-((5-chloro-4-((2-(dimethylphosphoryl)phenyl)amino)pyrimidin-2-yl)amino)-3-methoxyphenyl)piperidin-4-yl)piperazin-1-yl)-N-(2-((2-(2,6-dioxopiperidin-3-yl)-1,3-dioxoisoindolin-4-yl)amino)ethyl)acetamide] | – | 1 to 100 nM | –
5 | COc1cc(N2CCC(N3CCN(CC(=O)N[C@H](COc4cccc5c4C(=O)N(C4CCC(=O)NC4=O)C5=O)C(C)(C)C)CC3)CC2)ccc1Nc1ncc(Cl)c(Nc2ccccc2P(C)(C)=O)n1 (stereo partly drawn) [Compound C112, 2-(4-(1-(4-((5-chloro-4-((2-(dimethylphosphoryl)phenyl)amino)pyrimidin-2-yl)amino)-3-methoxyphenyl)piperidin-4-yl)piperazin-1-yl)-N-((2S)-1-((2-(2,6-dioxopiperidin-3-yl)-1,3-dioxoisoindolin-4-yl)oxy)-3,3-dimethylbutan-2-yl)acetamide] | – | 1 to 100 nM | –

Continued, values first:

Row | GI50 [1] | IC50 (EGFR^L858R/T790M/C797S) | GI50 [2] | SMILES
6 | > 300 nM | 1 to 100 nM | – | COc1cc(N2CCC(N3CCN(CC(=O)N4CC(F)(F)C[C@H]4C(=O)Nc4cccc5c4CN(C4CCC(=O)NC4=O)C5=O)CC3)CC2)ccc1Nc1ncc(Cl)c(Nc2ccccc2P(C)(C)=O)n1 (stereo partly drawn) [Compound C110, (2S)-1-(2-(4-(1-(4-((5-chloro-4-((2-(dimethylphosphoryl)phenyl)amino)pyrimidin-2-yl)amino)-3-methoxyphenyl)piperidin-4-yl)piperazin-1-yl)acetyl)-N-(2-(2,6-dioxopiperidin-3-yl)-1-oxoisoindolin-4-yl)-4,4-difluoropyrrolidine-2-carboxamide]
7 | 201 to 300 nM | 101 to 200 nM | – | C=Cc1cnc(Nc2ccc(N3CCC(N4CCN(CCCCCCCCCOc5cccc6c5C(=O)N(C5CCC(=O)NC5=O)C6=O)CC4)CC3)cc2OC)nc1Nc1ccccc1P(C)(C)=O (stereo not shown) [Compound C25, 4-((9-(4-(1-(4-((4-((2-(dimethylphosphoryl)phenyl)amino)-5-vinylpyrimidin-2-yl)amino)-3-methoxyphenyl)piperidin-4-yl)piperazin-1-yl)nonyl)oxy)-2-(2,6-dioxopiperidin-3-yl)isoindoline-1,3-dione]
8 | > 300 nM | 1 to 100 nM | – | COc1cc(N2CCC(N3CCN(CC(=O)N4CCC(OCC(=O)Nc5cccc6c5CN(C5CCC(=O)NC5=O)C6=O)CC4)CC3)CC2)ccc1Nc1ncc(Cl)c(Nc2ccccc2P(C)(C)=O)n1 (stereo not shown) [Compound C78, 2-((1-(2-(4-(1-(4-((5-chloro-4-((2-(dimethylphosphoryl)phenyl)amino)pyrimidin-2-yl)amino)-3-methoxyphenyl)piperidin-4-yl)piperazin-1-yl)acetyl)piperidin-4-yl)oxy)—N-(2-(2,6-dioxopiperidin-3-yl)-1-oxoisoindolin-4-yl)acetamide]
9 | > 300 nM | 1 to 100 nM | – | COc1cc(N2CCC(N3CCN(CCCCCC#Cc4cccc5c4C(=O)N(C4CCC(=O)NC4=O)C5=O)CC3)CC2)ccc1Nc1ncc(Cl)c(Nc2ccccc2P(C)(C)=O)n1 (stereo not shown) [Compound C148, 4-(7-(4-(1-(4-((5-chloro-4-((2-(dimethylphosphoryl)phenyl)amino)pyrimidin-2-yl)amino)-3-methoxyphenyl)piperidin-4-yl)piperazin-1-yl)hept-1-yn-1-yl)-2-(2,6-dioxopiperidin-3-yl)isoindoline-1,3-dione]
10 | > 300 nM | 1 to 100 nM | – | COc1cc(N2CCC(N3CCN(C(=O)C4(C(=O)Oc5cccc6c5C(=O)N(C5CCC(=O)NC5=O)C6=O)CC4)CC3)CC2)ccc1Nc1ncc(Cl)c(Nc2ccccc2P(C)(C)=O)n1 (stereo not shown) [Compound C104, 1-(4-(1-(4-((5-chloro-4-((2-(dimethylphosphoryl)phenyl)amino)pyrimidin-2-yl)amino)-3-methoxyphenyl)piperidin-4-yl)piperazine-1-carbonyl)cyclopropane-1-carboxylate 2-(2,6-dioxopiperidin-3-yl)-1,3-dioxoisoindolin-4-yl ester]
11 | 101 to 200 nM | – | 1 to 100 nM | COc1cc(N2CCC(N3CCN(CCCCCC#Cc4c(F)ccc5c4CN(C4CCC(=O)NC4=O)C5=O)CC3)CC2)ccc1Nc1ncc(Cl)c(Nc2ccccc2P(C)(C)=O)n1 (stereo not shown) [Compound C166, 3-(4-(7-(4-(1-(4-((5-chloro-4-((2-(dimethylphosphoryl)phenyl)amino)pyrimidin-2-yl)amino)-3-methoxyphenyl)piperidin-4-yl)piperazin-1-yl)hept-1-yn-1-yl)-5-fluoro-1-oxoisoindolin-2-yl)piperidine-2,6-dione]
12 | 1 to 100 nM | – | 1 to 100 nM | COc1cc(N2CCC3(CCN(CCCCCCc4cccc5c4CN(C4CCC(=O)NC4=O)C5=O)CC3)CC2)c(C)cc1Nc1ncc(Br)c(Nc2ccc3nccnc3c2P(C)(C)=O)n1 (stereo not shown) [Compound C299, 3-(4-(6-(9-(4-((5-bromo-4-((5-(dimethylphosphoryl)quinoxalin-6-yl)amino)pyrimidin-2-yl)amino)-5-methoxy-2-methylphenyl)-3,9-diazaspiro[5.5]undecan-3-yl)hexyl)-1-oxoisoindolin-2-yl)piperidine-2,6-dione]
